Columns and labels:
[1] = population PK, elderly patients; ref Wang et al., 2022; cited from earlier work
Description: Compared to the administration of a fixed dose of PB, the administration of a body-weight-based dose of PB increases the efficacy of the antibiotic ([Sandri et al., 2013]; [Miglis et al., 2018]; [Tsuji et al., 2019]; [Wang et al., 2021a]). However, clinicians usually administer a fixed dose of PB due to challenges in obtaining accurate body weight information about critically ill patients. Moreover, fixed loading and maintenance doses of polymyxin B appear more appropriate than weight-based dosing regimens in patients within the 45–90-kg BW range ([Hanafin et al., 2023]). This study is the fir ...

[2] = Kidney function indicators (Scr, eGFR) during PB therapy; assay type: in vivo, human; details: elderly patients, 100-mg maintenance dose, after an average of 3.83 days
Description: This study was approved by the Medical Ethics Committee of Shandong Provincial Hospital (No. 2021–356). Written informed consent was obtained from all patients or their legal representatives. Herein, we included 14 elderly patients (65≤ Age ≤95) who received intravenous PB injections (polymyxin B sulfate for injection, Shanghai First Biochemical Pharmaceutical Co., Ltd.) in the period between April 2021 and January 2023 for treating infections caused by multidrug-resistant Gram-negative bacteria. […] CrCL was calculated using the Cockcroft–Gault equation. […] A total of 112 blood samples were collected and detected, and all of these were stored at −70°C. After analysis by the validated methods, PK parameters were calculated by non-compartmental analysis using Phoenix WinNonlin software 8.3 (Certara, United States).
The recommended AUCss, 24 h range of PB, which is based on the therapeutic window of the drug, is between 50 and 100 μg h/mL ([Tsuji et al., 2019]; [Liu et al., 2023]). […] To avoid the MS/MS crosstalk among the above-mentioned analytes undermining their detection sensitivity and quantitative accuracy, each analyte should be quantified with satisfactory chromatographic separation. […] However, crosstalk still should be measured in a high concentration level. […]

[3] = Pharmacokinetic study of intravenous PB in elderly patients infected with multidrug-resistant Gram-negative bacteria; assay type: in vivo, human; details: for AUCss, 24 h: elderly patients, steady state, first-order elimination-based equation, mean ± SD; for Ctrough: human, in vivo
Description: This study was approved by the Medical Ethics Committee of Shandong Provincial Hospital (No. 2021–356). Written informed consent was obtained from all patients or their legal representatives. Herein, we included 14 elderly patients (65≤ Age ≤95) who received intravenous PB injections (polymyxin B sulfate for injection, Shanghai First Biochemical Pharmaceutical Co., Ltd.) in the period between April 2021 and January 2023 for treating infections caused by multidrug-resistant Gram-negative bacteria. These patients were divided into two groups: in the first group, eight patients received 100 mg loading dose combined with 75 mg maintenance dose q 12 h, and in the other group, six subjects received a 150-mg loading dose and a 100-mg maintenance dose q 12 h. The duration of the intravenous treatment was 1 h. The dosage for all patients was decided by the clinician according to the clinical response. Patients undergoing plasma exchange, continuous renal replacement therapy, or extracorporeal membrane oxygenation were excluded. Clinical and demographic data (age, gender, body weight, pathogens, infection sites, and PB-treatment history) were collected from electronic medical records. Laboratory data, including serum creatinine (Scr), estimated glomerular filtration rate (eGFR), and creatinine clearance (CrCL), were collected on the sampling day. CrCL was calculated using the Cockcroft–Gault equation. On the third day after the administration of the loading dose, blood samples were collected at pre-dose (0 h) and 0.5, 1, 2, 3, 6, 8, and 12 h after the start of administration using EDTA tubes and processed to obtain plasma samples. A total of 112 blood samples were collected and detected, and all of these were stored at −70°C. After analysis by the validated methods, PK parameters were calculated by non-compartmental analysis using Phoenix WinNonlin software 8.3 (Certara, United States).
After validation, the HPLC–MS/MS method was applied to the PK study of PB in elderly patients infected with multidrug-resistant Gram-negative bacteria. A total of 112 blood samples were collected from 14 elderly patients receiving intravenous PB treatment. […] The concentration of PB is the sum of the concentrations of PB1 and PB2 calculated, and it is based on the formula provided by [Liu et al. (2023)]. The individual AUCss, 24 h values were estimated using the first-order elimination-based equation method ([Begg et al., 1995]; [Pai et al., 2014]; [Liu et al., 2023]).

[4] = Stability of PB1 and PB2 in human plasma under different storage conditions; details: human plasma: 24 h at room temperature (25°C), 24 h at 4°C (post preparative), three freeze–thaw cycles, 85 days at −70°C
Description: The stock solutions of the calibrators and quality control (QC) samples should be prepared separately in the same way. The PB stock solution for calibrators and QC samples was prepared in water (1% FA) at 400.48 μg/mL for PB1 and 40.84 μg/mL for PB2. Consequently, working solutions for construction of calibrators and QC were prepared by serially diluting the stock solution with a 1% aqueous solution of FA. The concentrations of the working solutions for calibrators were 10.01, 30.03, 50.05, 100.12, 150.18, and 200.24 μg/mL for PB1 and 1.02, 3.06, 5.10, 10.21, 15.31, and 20.42 μg/mL for PB2. The concentrations of working solutions for QCs were prepared at 20.02 μg/mL (LQC), 90.11 μg/mL (MQC), and 180.22 μg/mL (HQC) for PB1 and 2.04 μg/mL (LQC), 9.18 μg/mL (MQC), and 18.36 μg/mL (HQC) for PB2. The working solution of IS (10.00 μg/mL) was prepared using methanol. All the above solutions were stored at −70°C. The calibrators and QC samples were obtained by spiking 90 μL of blank plasma with 10 μL of working solution at the corresponding concentration. The standard curves were in the range of 1.00–20.02 μg/mL and 0.10–2.04 μg/mL for PB1 and PB2, respectively.
Typically, 100 μL of the plasma sample was mixed with 10 μL IS working solution, and then, 300 μL 0.1% FA in methanol was added to the sample for protein precipitation. The mixture was vortexed for 3 min and centrifuged in an Eppendorf 5415D microcentrifuge (Eppendorf, Hamburg, Germany) at 11,000 g rpm for 10 min. Subsequently, 200 μL of the supernatant was transferred into a clean polypropylene tube and diluted with 150 μL of 0.1% FA in water. The mixture solution was vortexed for 3 min and centrifuged at 11,000 rpm for 10 min using the same centrifuge. Finally, 200 μL of the supernatant was transferred into an injection bottle, and 10 μL was injected into the HPLC–MS/MS for analysis.
The stability of the working solutions of PB1 and PB2 was evaluated. The short-term stability and long-term stability of PB1 and PB2 in human plasma were evaluated under the following conditions: placed at room temperature or 4°C for 24 h, frozen and thawed three times, and stored at −70°C for 85 days. The stability evaluation was conducted for both LQC and HQC concentrations.

Polymyxin B [PB]
typical value of CL [1]: 1.87 L/h
mean Scr value during therapy [2]: 111.82 µmol/L
mean eGFR value during therapy [2]: 66.00 mL/min
AUCss, 24 h ([3]; maintenance 75 mg q12h, n = 8): 117.70 ± 37.03 µg·h/mL
AUCss, 24 h ([3]; maintenance 100 mg q12h, n = 6): 152.73 ± 70.09 µg·h/mL
Ctrough ([3]; 75 mg): 2650 ± 1320 ng/mL
Ctrough ([3]; 100 mg): 3400 ± 1870 ng/mL
Stability in human plasma (in words) [4]: stable
